What was measured:
Axl = target: T1, Axl (Homo sapiens, UniProt P30530); test: LanthaScreen Eu kinase binding assay for Axl; conditions: read-out: Axl kinase binding activity (Kd)
T1 sequence (P30530 26-894): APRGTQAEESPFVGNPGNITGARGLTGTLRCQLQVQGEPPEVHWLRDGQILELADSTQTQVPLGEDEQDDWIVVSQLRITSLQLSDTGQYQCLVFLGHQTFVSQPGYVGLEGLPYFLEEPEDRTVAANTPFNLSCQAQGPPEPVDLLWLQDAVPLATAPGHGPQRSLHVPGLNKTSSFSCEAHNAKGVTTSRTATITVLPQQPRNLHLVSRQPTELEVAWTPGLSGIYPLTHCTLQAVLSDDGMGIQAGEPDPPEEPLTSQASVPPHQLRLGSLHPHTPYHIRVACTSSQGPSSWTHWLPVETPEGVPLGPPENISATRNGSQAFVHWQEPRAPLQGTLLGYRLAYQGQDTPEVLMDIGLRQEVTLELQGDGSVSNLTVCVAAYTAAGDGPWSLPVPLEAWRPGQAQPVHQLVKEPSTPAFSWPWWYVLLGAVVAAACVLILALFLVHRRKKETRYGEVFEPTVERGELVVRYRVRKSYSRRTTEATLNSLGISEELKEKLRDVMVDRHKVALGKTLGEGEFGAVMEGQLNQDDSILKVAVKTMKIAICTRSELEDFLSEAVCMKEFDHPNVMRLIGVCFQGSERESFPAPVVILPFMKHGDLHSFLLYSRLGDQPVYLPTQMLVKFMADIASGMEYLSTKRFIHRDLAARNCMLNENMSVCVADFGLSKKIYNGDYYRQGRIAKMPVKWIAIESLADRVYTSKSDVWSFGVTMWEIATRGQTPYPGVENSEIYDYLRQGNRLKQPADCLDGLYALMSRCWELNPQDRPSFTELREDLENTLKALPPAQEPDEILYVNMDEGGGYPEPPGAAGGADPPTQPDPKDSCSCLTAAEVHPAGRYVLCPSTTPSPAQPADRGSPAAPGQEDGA
Procedure: LanthaScreen® Eu Kinase Binding assays were conducted at Life Technologies using the manufacturer's specifications for each kinase indicated.
Briefly, the principle behind this assay is based upon the binding and displacement of an Alexa Fluor 647-labeled tracer to the kinase of interest. Binding of the tracer to the kinase is detected using an EU-labeled anti-tag antibody. Simultaneous binding of both the tracer and antibody to the kinase gives rise to a FRET-signal. Binding of an inhibitor to the kinase competes for binding with the tracer, resulting in a loss of FRET-signal.
A given compound was diluted in DMSO to make a stock compound solution. The stock compound solution was serially diluted over eight steps in DMSO. Each diluted compound solution in DMSO was diluted in kinase buffer. Afterwards four kinds of working solution were prepared. First, Tracer-Working solution consists of Tracer 236 and Kinase Buffer. Second, Axl, Mer, Tyro3 or Met/anti-GST-AB-Working solution contained one of the kinases Axl, and Mer or anti-GST-AB (=anti glutathione-S-transferase antibody) in Kinase Buffer. Third, anti-GST-AB-Working solution was made with anti-GST-AB and Kinase Buffer. Last, in the DMSO-Working solution DMSO was added to Kinase Buffer to a final concentration to 3%. Each of the four kinds of working solutions were separately added to the assay plate and then incubated for 1 h at room temperature. After incubation, the assay plate was measured with respect to the FRET-Signal with the EnVision (Perkin Elmer) using the program LanthaHTRF-Assay. Data evaluation was done in the Quattro Workflow software. Kd (the equilibrium dissociation constant) values were calculated relative to vehicle (DMSO) control wells.

CSF1R (M-NFS-60 cells) = test: Cell Titer-Glo viability assay using M-NFS-60 cells; format: cell-based; conditions: Mus musculus, read-out: Cellular CSF1R activity by M-NFS-60 viability assay (IC50 activity range)
Procedure: M-NFS-60 cells were cultured in RPMI-1640 medium containing 10% FBS, 0.05 mM 2-Mercaptoethanol, penicillin (100 U/ml)/streptomycin ([…]) and supplemented with 62 ng/ml recombinant human M-CSF at 37° C./5% CO2. Aliquots of the cells were seeded into a 96-well plate (2×10^5 cells in 100 μl/well) and then incubated at 37° C./5% CO2 1 h. Dissolve compound in 100% DMSO to make 10 mM stock solutions (Aliquots stored in the Nitrogen Cabinet). Dilute 10 mM compounds solutions for 2-fold in 100% DMSO to get 5 mM solutions (10 μl+10 μl DMSO), and then make a 3-fold serial dilution (10 μl+20 μl DMSO) for 10 doses. For reference compounds: Dilute 10 mM compounds solutions for 20-fold in 100% DMSO to get 0.5 mM solutions (2 μl+38 μl DMSO), and then make a 3-fold serial dilution (10 μl+20 μl DMSO) for 8 doses. The 96-well plate was equilibrated at room temperature for 30 min. 50 μl of CellTiter-Glo® Reagent added to each well and mixed for 2 min on an orbital shaker to induce cell lysis. The 96-well plate was incubated at room temperature for 10 min to stabilize luminescent signal. Luminescent was measured […] by EnVison plate reader. Calculations and Formulas: The following calculations and formulas are used for data analysis using XL Fit software: The curve fitting was made using the Sigmoidal Dose-Response Model (Fit model, 205).

Kd (Axl) [nM]	SMILES	IC50 (CSF1R (M-NFS-60 cells)) [nM]
< 100	COCCn1cc(OCC(F)(F)F)c(C(=O)Nc2ccc(Oc3ccnc4cc(OC)c(OC)cc34)nn2)n1 [Compound 126]	1000 to 10000
≥ 500	CNCCn1cc(OCC(F)(F)F)c(C(=O)Nc2ccc(Oc3ccnc4cc(OC)c(OC)cc34)nn2)n1 [Compound 127]	≥ 10000
< 100	COc1cc2nccc(Oc3ccc(NC(=O)c4nn(C5CCOC5)cc4OCC(F)(F)F)nn3)c2cc1OC (centres unmarked) [Compound 128]	1000 to 10000
100 to 500	COc1cc2nccc(Oc3ccc(NC(=O)c4nn(CCO)cc4OCC(F)(F)F)cn3)c2cc1OC [Compound 129]	≥ 10000
< 100	COc1cc2nccc(Oc3ccc(NC(=O)c4nn(CCOC5CC5)cc4OCC(F)(F)F)cn3)c2cc1OC [Compound 130]	1000 to 10000
< 100	COc1cc2nccc(Oc3ccc(NC(=O)c4nn(C5CCCC5)cc4OCC(F)(F)F)cn3)c2cc1OC [Compound 131]	1000 to 10000
≥ 500	COc1cc2nccc(Oc3ccc(NC(=O)c4nn(C5CCNC5)cc4OCC(F)(F)F)cn3)c2cc1OC (centres unmarked) [Compound 132]	≥ 10000
100 to 500	COc1cc2nccc(Oc3ccc(NC(=O)c4nn(C5CCN(C)C5)cc4OCC(F)(F)F)cn3)c2cc1OC (centres unmarked) [Compound 133]	1000 to 10000
< 100	COc1cc2nccc(Oc3ccc(NC(=O)c4nn(CC5COC5)cc4OCC(F)(F)F)cn3)c2cc1OC [Compound 134]	≥ 10000
≥ 500	COc1cc2nccc(Oc3ccc(NC(=O)c4nn(CCN)cc4OCC(F)(F)F)cn3)c2cc1OC [Compound 135]	≥ 10000
< 100	COc1cc2nccc(Oc3ccc(NC(=O)c4nn(CC(C)O)cc4OCC(F)(F)F)cn3)c2cc1OC (centres unmarked) [Compound 136]	1000 to 10000
≥ 500	CNCCn1cc(OCC(F)(F)F)c(C(=O)Nc2ccc(Oc3ccnc4cc(OC)c(OC)cc34)nc2)n1 [Compound 137]	1000 to 10000
< 100	COc1cc2nccc(Oc3ccc(NC(=O)c4nn(C5CCOC5)cc4OCC(F)(F)F)cn3)c2cc1OC (centres unmarked) [Compound 138]	1000 to 10000
< 100	CCCn1cc(OCC(F)(F)F)c(C(=O)Nc2ccc(Oc3ccnc4cc(OC)c(OC)cc34)nc2)n1 [Compound 139]	1000 to 10000
≥ 500	CCCn1cc(OCCNC)c(C(=O)Nc2ccc(Oc3ccnc4cc(OC)c(OC)cc34)cn2)n1 [Compound 140]	1000 to 10000
≥ 500	CNCCOc1cn(C2CC2)nc1C(=O)Nc1ccc(Oc2ccnc3cc(OC)c(OC)cc23)cn1 [Compound 141]	≥ 10000
< 100	COc1cc2nccc(Oc3ccc(NC(=O)c4nn(C5CC5)cc4NCCC(F)(F)F)nc3)c2cc1OC [Compound 142]	1000 to 10000
< 100	COc1cc2nccc(Oc3ccc(NC(=O)c4nn(C5CC5)cc4OCC4COC4)nc3)c2cc1OC [Compound 143]	1000 to 10000
100 to 500	COc1cc2nccc(Oc3ccc(NC(=O)c4nn(C5CC5)cc4OCC4CNC4)nc3)c2cc1OC [Compound 144]	≥ 10000
< 100	COc1cc2nccc(Oc3ccc(NC(=O)c4nn(C5CC5)cc4NCC(F)(F)F)nc3)c2cc1OC [Compound 145]	< 1000

Kd (Axl) [nM]	SMILES	IC50 (CSF1R (M-NFS-60 cells)) [nM]
< 100	COc1cc2nccc(Oc3ccc(NC(=O)c4nn(C5CC5)cc4NCCC(F)(F)F)nn3)c2cc1OC [Compound 146]	1000 to 10000
< 100	COc1cc2nccc(Oc3ccc(NC(=O)c4nn(C5CC5)cc4OC(C)C)nn3)c2cc1OC [Compound 147]	1000 to 10000
< 100	COc1cc2nccc(Oc3ccc(NC(=O)c4nn(C5CC5)cc4NCC(F)(F)F)nn3)c2cc1OC [Compound 148]	1000 to 10000
< 100	COc1cc2nccc(Oc3ccc(NC(=O)c4nn(C5CC5)cc4OCC4CCC4)nn3)c2cc1OC [Compound 149]	1000 to 10000
< 100	COCCOc1cn(CC(C)O)nc1C(=O)Nc1ccc(Oc2ccnc3cc(OC)c(OC)cc23)cn1 (centres unmarked) [Compound 150]	1000 to 10000
< 100	COc1cc2nccc(Oc3ccc(NC(=O)c4nn(CC(C)O)cc4OC(C)C)nc3)c2cc1OC (centres unmarked) [Compound 151]	< 1000
< 100	COc1cc2nccc(Oc3ccc(NC(=O)c4nn(CC(C)O)cc4OCCF)nc3)c2cc1OC (centres unmarked) [Compound 152]	< 1000
< 100	COc1cc2nccc(Oc3ccc(NC(=O)c4nn(CCOC5CC5)cc4OCC(F)(F)F)nc3)c2cc1OC [Compound 153]	< 1000
< 100	CNCCn1cc(OCC(F)(F)F)c(C(=O)Nc2ccc(Oc3ccnc4cc(OC)c(OC)cc34)cc2F)n1 [Compound 154]	1000 to 10000
< 100	CNCCn1cc(OCC(F)(F)F)c(C(=O)Nc2ccc(Oc3ccnc4cc(OC)c(OC)cc34)c(F)c2)n1 [Compound 155]	1000 to 10000
100 to 500	CNCCn1cc(OCC(F)(F)F)c(C(=O)Nc2ccc(Oc3ccnc4cc(OC)c(OC)cc34)c(C)c2)n1 [Compound 156]	1000 to 10000
100 to 500	COc1cc2nccc(Oc3ccc(NC(=O)c4nn(C5CCN(C)C5)cc4OCC(F)(F)F)nn3)c2cc1OC (centres unmarked) [Compound 157]	1000 to 10000
< 100	CCCn1cc(NCCC(F)(F)F)c(C(=O)Nc2ccc(Oc3ccnc4cc(OC)c(OC)cc34)cn2)n1 [Compound 158]	1000 to 10000
≥ 500	CCCn1cc(OCC2CNC2)c(C(=O)Nc2ccc(Oc3ccnc4cc(OC)c(OC)cc34)cn2)n1 [Compound 159]	≥ 10000
≥ 500	CNCCOc1cn(C2CC2)nc1C(=O)Nc1ccc(Oc2ccnc3cc(OC)c(OC)cc23)nn1 [Compound 160]	≥ 10000
< 100	COc1cc2nccc(Oc3ccc(NC(=O)c4nn(C5CC5)cc4OCC4COC4)nn3)c2cc1OC [Compound 161]	1000 to 10000
< 100	COc1cc2nccc(Oc3ccc(NC(=O)c4nn(C5CC5)cc4OCC(F)F)nn3)c2cc1OC [Compound 162]	1000 to 10000
< 100	COc1cc2nccc(Oc3ccc(NC(=O)c4nn(CC(C)O)cc4OCC4CCC4)nc3)c2cc1OC (centres unmarked) [Compound 163]	1000 to 10000
< 100	CCCn1cc(OCC2CCOCC2)c(C(=O)Nc2ccc(Oc3ccnc4cc(OC)c(OC)cc34)cn2)n1 [Compound 164]	≥ 10000
100 to 500	CCCn1cc(OCCN(C)C)c(C(=O)Nc2ccc(Oc3ccnc4cc(OC)c(OC)cc34)c(F)c2)n1 [Compound 165]	1000 to 10000

Source: patent US12162858B2, “Quinoline derivatives as inhibitors of AXL/MER RTK and CSF1R” (QURIENT CO., LTD., priority 2018, dated 2024)
